Experiment [1] concerns chick chorioallantoic membrane. In words: Chick chorioallantoic membrane (CAM) assay. It is filed as in vivo. The settings on record: 8-day-old chick embryos, 3 days; netrin-1 150 ng/ml, z-VAD-fmk 20 nM, BAF 20 nM; p<0.02. As for the experimental part: Chick chorioallantoic membrane assay (CAM) assay was performed as already described. White Leghorn eggs were incubated at 37° C. in a humidified atmosphere. After 72 hours of incubation, 3 ml albumen was removed and a square window was opened into the shell. The opening was closed with cellotape until day 8. Netrin-1 (150 ng/ml), z-VAD-fmk (Tebu; 20 nM), BAF (Sigma; 20 nM), or VEGF (Sigma) were then diluted in PBS and mixed with an equal volume of autoclaved 1% methylcellulose solution. Controls were prepared with vehicles only. Each sample solution (10 μl) was dropped on Parafilm and dried up. The methylcellulose disks were stripped off from the Parafilm and placed on a CAM of the 8-day-old chick embryos. After 3 days, CAMs were photographed and the angiogenic response was evaluated by measuring the number of secondary ectopic vessels sprouts under the methylcellulose disks using AxioVision Release 4.6 software. UNC5B silencing in CAM was achieved by injection of specific siRNA designed by Sigma-Proligo in CAM blood circulation at E.5, E.7 and E.9. Analysis was performed at E.11.

The next experiment has as its system murine aortic rings. As to the kind of experiment: Aortic ring matrigel assay (ex vivo). It is filed as cell-based, mouse. The settings on record: netrin-1 150 ng/ml, z-VAD-fmk 20 nM, BAF 20 nM, VEGF 13 ng/ml; day 4. As to the method: Aortic ring assays were performed as described by Nicosia and colleagues (Nicosia and Ottinetti, 1990). Aortas were resected from Balb/C mice of 6 to 8 weeks of age, cleaned of periadventitial fat and connective tissues, rinsed twice in ECGM and cut in rings of 1 to 1.5 mm length. One hundred microliters of Growth factor reduced Matrigel (BD Biosciences) was added to each well of a 48-well tissue culture plate (Costar) and allowed to solidify for 30 min. at 37° C. Aortic rings were placed on the matrix layer, embedded in 100 μl of Matrigel, and allowed to recover in complete growth medium (ECGM, Promocell) for 24 hours. They were then treated or not with netrin-1 (150 ng/ml), z-VAD-fmk (Tebu; 20 nM), BAF (Sigma; 20 nM) or VEGF (Sigma; 13 ng/ml) and photographed with a phase contrast microscope on day 4. Microvessels outgrowth total length was calculated using AxioVision Release 4.6 software.

The subject of experiment [2] is HUVEC. In words: Caspase-3 activity assay (ApoAlert CPP32 kit, active caspase-3 immunostaining). It is filed as cell-based, human. As to conditions: netrin 50 ng/ml, p<0.005. As to the method:
Human umbilical vein and artery cells (Promocell, passages<8) were cultured in endothelial cell growth medium (ECGM, Promocell) supplemented with 2% serum (kit, Promocell) until they reach 80% confluence. HUVEC were transfected using the AMAXA Nucleofector system, according to manufacturer's instructions. In brief, 500 000 cells were resuspended in 100 μl HUVEC Nucleofector solution and transfected with 1 μg siRNA or 1.5 μg plasmid DNA and 0.5 μg GFP-encoding control plasmid. UNC5A, UNC5B and scramble siRNAs were designed by Sigma-Proligo. Plasmids encoding mutant DAP kinase (DAP kinase ΔCam and DAP kinase DD) were described previously (Llambi et al., 2005). After transfection, cells were cultured in 1% growth medium and collected after 24 hours.
Cell death assays were performed as described previously. Briefly, endothelial cells were seeded at 10 000 cells/cm2 in complete medium for 16 hours. Cell death was induced either by starvation in serum free medium (Endothelium Cell Basal Medium, Promocell) or by exposure to 50 μM etoposide. Netrin-1 was purchased from Axxora-Apotech. Cell death was scored by trypan blue exclusion assay as previously described. […] Caspase-3 activity was measured using ApoAlert CPP32 kit from Clontech (USA) and by immunostaining on fixed cells using anti-active-caspase-3 antibody (Cell Signaling) as described in (Llambi et al., 2005; Tauszig-Delamasure et al., 2007). […]

Experiment [3] deals with HUVEC. In words: Etoposide-induced cell death, Toxilight assay. The settings on record: overnight treatment with 50 μM etoposide; p<0.05. It is filed as cell-based, human. As for the experimental part:
(§1) Cell death assays were performed as described previously. Briefly, endothelial cells were seeded at 10 000 cells/cm2 in complete medium for 16 hours. Cell death was induced either by starvation in serum free medium (Endothelium Cell Basal Medium, Promocell) or by exposure to 50 μM etoposide. Netrin-1 was purchased from Axxora-Apotech. Cell death was scored by trypan blue exclusion assay as previously described. For detection of DNA fragmentation, treated cells cultured on coverslips were fixed 20 minutes in 4% paraformaldehyde (PFA) and Terminal deoxynucleodityl transferase mediated dUTP-biotin Nick End Labeling (TUNEL) was performed with 300 U/mL TUNEL enzyme (300 U/mL) and 6 μM biotinylated dUTP (Roche Diagnostics). Caspase-3 activity was measured using ApoAlert CPP32 kit from Clontech (USA) and by immunostaining on fixed cells using anti-active-caspase-3 antibody (Cell Signaling) as described in (Llambi et al., 2005; Tauszig-Delamasure et al., 2007). Toxilight assay was performed according to manufacturer's instructions (Lonza). For netrin-1 titration experiment, rat recombinant UNC5H2-Fc (R&D) was used at 1 μg/ml.

In experiment [4] the test system is HUAEC. As to the kind of experiment: Etoposide-induced cell death, Toxilight assay. As to conditions: overnight treatment with 50 μM etoposide; p<0.05. It is filed as cell-based, human. As for the experimental part:
as §1

The subject of experiment [5] is HUVEC. As to the kind of experiment: TUNEL staining of apoptosis. It is filed as cell-based, human. As to conditions: netrin 50 ng/ml. As to the method:
as §1

The subject of experiment [6] is HUVEC. In words: Cell death upon serum starvation, trypan blue exclusion. It is filed as cell-based, human. As to conditions: netrin 50 ng/ml, p<0.005. As for the experimental part:
as §1

In experiment [7] the test system is HUAEC. The experiment is described as above. The class given is cell-based, human. As to conditions: netrin 50 ng/ml, p<0.005. As to the method: as §1
The next experiment deals with DAP kinase. In words: DAP kinase phosphorylation, Western blot. It is filed as cell-based, human. The settings on record: HUVEC; netrin-1 in serum free medium 24 hours. As for the experimental part: Endothelial cells seeded at 10 000 cells/cm^2 and treated or not with netrin-1 in serum free medium (Endothelium Cell Basal Medium, Promocell) for 24 hours were collected and lysed in 50 mM HEPES pH 7.6, 125 mM NaCl, 5 mM EDTA and 0.1% NP-40 buffer in the presence of protease inhibitors. Protein extracts were immunoblotted with anti-DAP-kinase and anti-phospho-DAP kinase antibodies (Sigma). For immunofluorescence analysis, cells were seeded on LabTek chamber slides and fixed 15 minutes in 4% PFA.
In general terms: A western blot detects proteins with antibodies after separation by electrophoresis.

Experiment [8] has as its system HUAEC. In words: Caspase-3 activity assay (ApoAlert CPP32 kit, active caspase-3 immunostaining). It is filed as cell-based, human. As to conditions: netrin 50 ng/ml, p<0.005. As to the method: as §1
In another experiment the test system is zebrafish embryos. In words: Apoptosis in zebrafish embryos (TUNEL staining, caspase-3 activity). The class given is in vivo. The settings on record: TUNEL immunostaining and caspase-3 activity; tsl-netrin-1a injected embryos.
Experiment [9] concerns fli:egfp zebrafish embryos. As to the kind of experiment: Morpholino knockdown of fli:egfp zebrafish embryos, trunk vasculature phenotype. It is filed as in vivo. As to the method:
Resource Center (University of Oregon) and maintained under standard breeding conditions at 28° C. (Lawson and Weinstein, 2002). Embryos were dechorionated using pronase enzymatic treatment and 6 ng of splice/translation blocking netrin-1, UNC5B and control morpholinos that were previously designed and characterized were injected alone or in combination in the high yolk of one to four-cells-stage embryos. A third splice-blocking morpholino specifically targeting netrin-1a was designed (GeneTools) and injected in embryos at the same dose. Finally, 3 ng of a translation-blocking morpholino targeting zebrafish ortholog of DAP kinase (GeneTools) was injected, leading to 35% decrease of DAP kinase mRNA expression in knocked-down embryos compared to control. Sequences of morpholinos are available upon request. Embryos were raised in E3 medium supplemented with 0.003% phenylthiourea to inhibit pigment formation. Rescue of phenotype induced by netrin-1a silencing was tested by adding 40 nM BAF in the E3 medium 4 hours after morpholinos injection. For TUNEL staining, embryos were fixed at 48 hpf in 4% PFA overnight at 4° C. They were then rinsed 10 minutes in PBS-Tween 0.1% (PBST) and progressively dehydrated in successive methanol baths (25, 50, 75 and 100%). […]

Peptide text beside a SMILES is read from it. * marks the point of attachment. Cbz = O=C(OCc1ccccc1)*; CH2F = FC* Bounds are passed on as bounds.

VEGF: in [1], the “neovessel formation in vicinity of methylcellulose discs” value (from here on “neovessel formation in vicinity”) is “significant increase in neovessel formation”. Moreover, the “capillary sprouting / microvessels formation from aortic rings” value with murine aortic rings is recorded as “enhanced capillary sprouting”.

For the compound `COC(=O)C[C@H](NC(=O)[C@H](C)NC(=O)[C@@H](NC(=O)OCc1ccccc1)C(C)C)C(=O)CF` [z-VAD-fmk, reference compound] (Cbz-Val-Ala-Asp(OMe)-CH2F), the “neovessel formation in vicinity” value in experiment [1] is reported as “significant increase in neovessel formation”. Besides, the “capillary sprouting / microvessels formation from aortic rings” value with murine aortic rings is recorded as “induced neocapillary tube formation”.

For netrin-1, the figures for the “reduced caspase-3 activity” value in the experiment on HUVEC [2] and in the experiment with HUAEC [8] were “up to 30%” and at most 40%, respectively. In addition, in the experiment on HUVEC [3], the “HUVEC cell death upon etoposide” value is given as “inhibits”. Also, the “HUAEC cell death upon etoposide” value in the experiment with HUAEC [4] is reported as “inhibits”. In experiment [1], the “neovessel formation in vicinity” value is given as “significant increase in neovessel formation”. The “number of TUNEL positive cells” value in the experiment on HUVEC [5] is reported as “decreased number of TUNEL positive cells”. The HUVEC cell death entry with HUVEC [6] is given as “inhibited”. Moreover, the HUAEC cell death result with HUAEC [7] was “inhibited”. In the experiment on murine aortic rings, the “capillary sprouting / microvessels formation from aortic rings” value is recorded as “enhanced capillary sprouting”. For the same compound, the DAP kinase phosphorylation entry with DAP kinase is recorded as “increase in DAP kinase phosphorylation”.

With `COC(=O)C[C@H](NC(=O)OC(C)(C)C)C(=O)CF` [BAF], in experiment [1], the “neovessel formation in vicinity” value is on record as “significant increase in neovessel formation”. Moreover, in the experiment on zebrafish embryos, the “increase of cell death after netrin-1a silencing” value is given as “rescued the increase of cell death”. The “capillary sprouting / microvessels formation from aortic rings” value in the experiment on murine aortic rings is on record as “induced neocapillary tube formation”. Further, the “embryos with PAV formation” value in experiment [9] (spl-netrin-1a injected embryos treated with 40 nM BAF, n=54, 42.7% in untreated, p<0.0001) worked out at 92.6%. In addition, the “embryos displaying at least partial ISVs” value in experiment [9] (tsl-netrin-1a knock-down embryos treated with BAF, 23.0% in controls, p<0.001) is given as 54.5%.

The values above are taken from patent publication US20120015364A1, “METHOD FOR THE SELECTION OF ENDOTHELIAL CELLS DEATH INDUCERS VIA NETRIN-1 AND ITS APPLICATIONS” (CENTRE NATIONAL DE LA RECHERCHE SCIENTIFIQUE (CNRS), priority 2009, published 2012).
